± gives the uncertainty stated by the source.
Experiment: xn = mol fraction of the nth substance listed

For `CC(O)CNCC(C)O` (configuration not stated) + O, the viscosity (293.15 K, 101.3 kPa, x1 = 0.0071) was 1.261 ± 0.035 mPa·s, the viscosity (293.15 K, 101.3 kPa, x1 = 0.0148) was 1.61 ± 0.05 mPa·s and the viscosity (293.15 K, 101.3 kPa, x1 = 0.0329) was 2.803 ± 0.057 mPa·s. For the same compound, the viscosity (298.15 K, 101.3 kPa, x1 = 0.0071) was 1.097 ± 0.028 mPa·s, the viscosity (298.15 K, 101.3 kPa, x1 = 0.0148) was 1.37 ± 0.041 mPa·s and the viscosity (298.15 K, 101.3 kPa, x1 = 0.0329) was 2.363 ± 0.048 mPa·s. The viscosity (303.15 K, 101.3 kPa, x1 = 0.0071) was 0.958 ± 0.026 mPa·s, the viscosity (303.15 K, 101.3 kPa, x1 = 0.0148) was 1.211 ± 0.037 mPa·s and the viscosity (303.15 K, 101.3 kPa, x1 = 0.0329) was 2.08 ± 0.04 mPa·s. It also gave a viscosity (308.15 K, 101 kPa, x1 = 0.03) of 1.695 ± 0.01 mPa·s, a viscosity (308.15 K, 101.3 kPa, x1 = 0.0071) of 0.834 ± 0.022 mPa·s and a viscosity (308.15 K, 101.3 kPa, x1 = 0.0148) of 1.046 ± 0.032 mPa·s. The viscosity (308.15 K, 101.3 kPa, x1 = 0.0329) was 1.803 ± 0.035 mPa·s, the viscosity (313.15 K, 101.3 kPa, x1 = 0.0071) was 0.738 ± 0.018 mPa·s and the viscosity (313.15 K, 101.3 kPa, x1 = 0.0148) was 0.914 ± 0.026 mPa·s. It also gave a viscosity (313.15 K, 101.3 kPa, x1 = 0.0329) of 1.54 ± 0.031 mPa·s, a viscosity (318.15 K, 101 kPa, x1 = 0.023) of 1.095 ± 0.0076 mPa·s and a viscosity (323.15 K, 101.3 kPa, x1 = 0.0071) of 0.597 ± 0.016 mPa·s. For the same compound, the viscosity (323.15 K, 101.3 kPa, x1 = 0.0148) was 0.775 ± 0.019 mPa·s and the viscosity (323.15 K, 101.3 kPa, x1 = 0.0329) was 1.2 ± 0.022 mPa·s.

For `CCCC[n+]1ccn(C)c1.O=C([O-])C(F)(F)F` + O, the viscosity (298.15 K, 101 kPa, x2 = 0.7927) was 9.03 ± 1 mPa·s.

For `CS(=O)(=O)[O-].C[NH+]1CCCC1=O` + O, the viscosity (293.15 K, 100 kPa, x1 = 0.00179) was 1.057 ± 0.012 mPa·s, the viscosity (293.15 K, 100 kPa, x1 = 0.003586) was 1.106 ± 0.013 mPa·s and the viscosity (293.15 K, 100 kPa, x1 = 0.005368) was 1.151 ± 0.013 mPa·s. The viscosity (293.15 K, 100 kPa, x1 = 0.008047) was 1.222 ± 0.014 mPa·s, the viscosity (293.15 K, 100 kPa, x1 = 0.01067) was 1.295 ± 0.015 mPa·s and the viscosity (293.15 K, 100 kPa, x1 = 0.01419) was 1.396 ± 0.016 mPa·s. The viscosity (293.15 K, 100 kPa, x1 = 0.02096) was 1.594 ± 0.018 mPa·s, the viscosity (293.15 K, 100 kPa, x1 = 0.0263) was 1.754 ± 0.02 mPa·s and the viscosity (293.15 K, 100 kPa, x1 = 0.03141) was 1.917 ± 0.022 mPa·s. The viscosity (298.15 K, 100 kPa, x1 = 0.00179) was 0.9409 ± 0.011 mPa·s, the viscosity (298.15 K, 100 kPa, x1 = 0.003586) was 0.9808 ± 0.011 mPa·s and the viscosity (298.15 K, 100 kPa, x1 = 0.005368) was 1.02 ± 0.012 mPa·s. For the same compound, the viscosity (298.15 K, 100 kPa, x1 = 0.008047) was 1.08 ± 0.012 mPa·s, the viscosity (298.15 K, 100 kPa, x1 = 0.01067) was 1.146 ± 0.013 mPa·s and the viscosity (298.15 K, 100 kPa, x1 = 0.01419) was 1.233 ± 0.014 mPa·s. It also gave a viscosity (298.15 K, 100 kPa, x1 = 0.02096) of 1.409 ± 0.016 mPa·s, a viscosity (298.15 K, 100 kPa, x1 = 0.0263) of 1.551 ± 0.018 mPa·s and a viscosity (298.15 K, 100 kPa, x1 = 0.03141) of 1.681 ± 0.019 mPa·s. The viscosity (303.15 K, 100 kPa, x1 = 0.00179) was 0.8421 ± 0.0097 mPa·s, the viscosity (303.15 K, 100 kPa, x1 = 0.003586) was 0.8782 ± 0.01 mPa·s and the viscosity (303.15 K, 100 kPa, x1 = 0.005368) was 0.9124 ± 0.01 mPa·s. For the same compound, the viscosity (303.15 K, 100 kPa, x1 = 0.008047) was 0.9664 ± 0.011 mPa·s, the viscosity (303.15 K, 100 kPa, x1 = 0.01067) was 1.022 ± 0.012 mPa·s and the viscosity (303.15 K, 100 kPa, x1 = 0.01419) was 1.099 ± 0.013 mPa·s. The viscosity (303.15 K, 100 kPa, x1 = 0.02096) was 1.254 ± 0.014 mPa·s, the viscosity (303.15 K, 100 kPa, x1 = 0.0263) was 1.374 ± 0.016 mPa·s and the viscosity (303.15 K, 100 kPa, x1 = 0.03141) was 1.483 ± 0.017 mPa·s. It also gave a viscosity (308.15 K, 100 kPa, x1 = 0.00179) of 0.7603 ± 0.0088 mPa·s, a viscosity (308.15 K, 100 kPa, x1 = 0.003586) of 0.7902 ± 0.0092 mPa·s and a viscosity (308.15 K, 100 kPa, x1 = 0.005368) of 0.8191 ± 0.0095 mPa·s. It also gave a viscosity (308.15 K, 100 kPa, x1 = 0.008047) of 0.8672 ± 0.01 mPa·s, a viscosity (308.15 K, 100 kPa, x1 = 0.01067) of 0.9163 ± 0.011 mPa·s and a viscosity (308.15 K, 100 kPa, x1 = 0.01419) of 0.9865 ± 0.011 mPa·s. For the same compound, the viscosity (308.15 K, 100 kPa, x1 = 0.02096) was 1.126 ± 0.013 mPa·s, the viscosity (308.15 K, 100 kPa, x1 = 0.0263) was 1.232 ± 0.014 mPa·s and the viscosity (308.15 K, 100 kPa, x1 = 0.03141) was 1.325 ± 0.015 mPa·s.

`C[C@H](N)C(=O)N[C@@H](CCC(N)=O)C(=O)O` + O showed a viscosity (298.15 K, 101 kPa, x1 = 0.0008999) of 0.919 ± 0.006 mPa·s.

Compound `C[n+]1ccn(CC(=O)O)c1.[Cl-]` + O has a viscosity (298.15 K, 101 kPa, x1 = 0.0009) of 0.911 ± 0.037 mPa·s, a viscosity (298.15 K, 101 kPa, x1 = 0.001) of 0.915 ± 0.037 mPa·s and a viscosity (298.15 K, 101 kPa, x1 = 0.002) of 0.917 ± 0.037 mPa·s.

For `[I-].[Na+]` + O, the viscosity (310.15 K, 101 kPa, x1 = 0.000186) was 0.7003 ± 0.0061 mPa·s, the viscosity (310.15 K, 101 kPa, x1 = 0.000929) was 0.6978 ± 0.0062 mPa·s and the viscosity (310.15 K, 101 kPa, x1 = 0.001834) was 0.6993 ± 0.0062 mPa·s. For the same compound, the viscosity (310.15 K, 101 kPa, x1 = 0.002695) was 0.7053 ± 0.0063 mPa·s, the viscosity (310.15 K, 101 kPa, x1 = 0.003679) was 0.7179 ± 0.0064 mPa·s and the viscosity (310.15 K, 101 kPa, x1 = 0.005197) was 0.749 ± 0.0067 mPa·s. For the same compound, the viscosity (310.15 K, 101 kPa, x1 = 0.005988) was 0.7709 ± 0.0069 mPa·s.

Work on `[I-].[Na+]` + OCCO yielded a viscosity (303 K, 101 kPa, x1 = 0.2) of 47.72 ± 0.72 mPa·s, a viscosity (313 K, 101 kPa, x1 = 0.2) of 29.93 ± 0.42 mPa·s and a viscosity (323 K, 101 kPa, x1 = 0.2) of 20.08 ± 0.27 mPa·s.

Work on `[Sn]` + [Ga] yielded a viscosity (323 K, 100 kPa, x1 = 0.085) of 1.693 ± 0.09 mPa·s, a viscosity (323 K, 100 kPa, x1 = 0.164) of 2.223 ± 0.098 mPa·s and a viscosity (323 K, 100 kPa, x1 = 0.37) of 3.637 ± 0.12 mPa·s. The viscosity (323 K, 100 kPa, x1 = 0.638) was 5.381 ± 0.16 mPa·s and the viscosity (323 K, 100 kPa, x1 = 0.841) was 6.576 ± 0.19 mPa·s.

In the case of `C=C(C)C(=O)OC` + c1ccccc1, the viscosity (303.15 K, 101 kPa, x1 = 0.1019) is reported as 0.5507 ± 0.0059 mPa·s, the viscosity (303.15 K, 101 kPa, x1 = 0.198) is reported as 0.543 ± 0.0059 mPa·s and the viscosity (303.15 K, 101 kPa, x1 = 0.4005) is reported as 0.5273 ± 0.0058 mPa·s. It also gave a viscosity (303.15 K, 101 kPa, x1 = 0.4996) of 0.522 ± 0.0058 mPa·s, a viscosity (303.15 K, 101 kPa, x1 = 0.5998) of 0.519 ± 0.0058 mPa·s and a viscosity (303.15 K, 101 kPa, x1 = 0.8001) of 0.5141 ± 0.0058 mPa·s. The viscosity (303.15 K, 101 kPa, x1 = 0.896) was 0.5142 ± 0.0058 mPa·s.

`CCCCC/C=C\C/C=C\CCCCCCCC(=O)OCC(COC(=O)CCCCCCC/C=C\C/C=C\CCCCC)OC(=O)CCCCCCC/C=C\C/C=C\CCCCC` + c1ccccc1 showed a viscosity (298.15 K, 101.3 kPa, x1 = 0.000427) of 0.6136 ± 0.0042 mPa·s, a viscosity (298.15 K, 101.3 kPa, x1 = 0.000515) of 0.6153 ± 0.0042 mPa·s and a viscosity (298.15 K, 101.3 kPa, x1 = 0.000838) of 0.6216 ± 0.0042 mPa·s. The viscosity (298.15 K, 101.3 kPa, x1 = 0.001044) was 0.6257 ± 0.0043 mPa·s, the viscosity (298.15 K, 101.3 kPa, x1 = 0.001751) was 0.6401 ± 0.0043 mPa·s and the viscosity (298.15 K, 101.3 kPa, x1 = 0.004505) was 0.6974 ± 0.0047 mPa·s. The viscosity (298.15 K, 101.3 kPa, x1 = 0.007049) was 0.7485 ± 0.005 mPa·s, the viscosity (298.15 K, 101.3 kPa, x1 = 0.009645) was 0.8054 ± 0.0053 mPa·s and the viscosity (303.15 K, 101.3 kPa, x1 = 0.000427) was 0.5723 ± 0.004 mPa·s. It also gave a viscosity (303.15 K, 101.3 kPa, x1 = 0.000515) of 0.5739 ± 0.004 mPa·s, a viscosity (303.15 K, 101.3 kPa, x1 = 0.000838) of 0.5797 ± 0.004 mPa·s and a viscosity (303.15 K, 101.3 kPa, x1 = 0.001044) of 0.5836 ± 0.004 mPa·s. The viscosity (303.15 K, 101.3 kPa, x1 = 0.001751) was 0.597 ± 0.0041 mPa·s, the viscosity (303.15 K, 101.3 kPa, x1 = 0.004505) was 0.6502 ± 0.0044 mPa·s and the viscosity (303.15 K, 101.3 kPa, x1 = 0.007049) was 0.6975 ± 0.0047 mPa·s. For the same compound, the viscosity (303.15 K, 101.3 kPa, x1 = 0.009645) was 0.7492 ± 0.005 mPa·s, the viscosity (308.15 K, 101.3 kPa, x1 = 0.000427) was 0.535 ± 0.0038 mPa·s and the viscosity (308.15 K, 101.3 kPa, x1 = 0.000515) was 0.5365 ± 0.0038 mPa·s. For the same compound, the viscosity (308.15 K, 101.3 kPa, x1 = 0.000838) was 0.5419 ± 0.0038 mPa·s, the viscosity (308.15 K, 101.3 kPa, x1 = 0.001044) was 0.5455 ± 0.0038 mPa·s and the viscosity (308.15 K, 101.3 kPa, x1 = 0.001751) was 0.558 ± 0.0039 mPa·s. The viscosity (308.15 K, 101.3 kPa, x1 = 0.004505) was 0.6077 ± 0.0042 mPa·s, the viscosity (308.15 K, 101.3 kPa, x1 = 0.007049) was 0.6515 ± 0.0044 mPa·s and the viscosity (308.15 K, 101.3 kPa, x1 = 0.009645) was 0.6986 ± 0.0047 mPa·s.

Source: the CheMixHub viscosity set
